In patent publication US10894777B2, “TG2 inhibitor piperazine compounds and uses thereof” (UNIVERSITY OF OTTAWA, priority 2016, dated 2021):

Key:
hTG1 = hTG1 (Homo sapiens, UniProt P22735); assay: Colorimetric transamidase activity assay (AL5 substrate), hTG1; type: biochemical; settings: Table 9; Kitz and Wilson conditions
Description: Selectivity of certain irreversible inhibitors over other members of the transglutaminase family was assessed. […] Inhibitors were tested using a continuous colorimetric assay (Leblanc, A. et al., Biochemistry (2001), 40 (28): 8335-8342) for hTG1 and hTG6 and a commercially available continuous fluorescent assay that utilizes a peptidic FRET quenched substrate (Oertel, K. et al., Anal. Biochem. (2007), 367 (2): 152-158; Király, R. et al., Amino Acids (2016), 48 (1): 31-40) for the other transglutaminases, FXIIIa and hTG3. The rate constant of enzyme inactivation (kobs) for a specific concentration of inhibitor was obtained using Kitz and Wilson conditions (Kitz, R. et al., J. Biol. Chem. (1962), 237: 3245-49). Inhibitor concentrations were adjusted to account for competition with substrates in each enzymatic reaction.
In Vitro Assays. Colorimetric transamidase activity assay.

A431 cells = assay: Matrigel invasion assay, A431 cells; type: cell-based, human
Description: In (A), it is shown that A431-derived ECS cells have elevated TG2 and mesenchymal markers. A431 cells (40,000 cells/well) were grown in spheroid media in monolayer conditions or as non-attached spheroids (ECS cells) for 10 d. Cells were harvested and lysates prepared for immunoblot. In (B), A431 cells were electroporated with 3 μg of control- or TG2-siRNA and at 72 h extracts were prepared to assay TG2 and EMT marker level. In (C), A431-derived ECS cells were electroporated with 3 μg of the indicated siRNA and then grown as spheroids for 96 h. […] In (D), A431 cells (500,000 cells/well) were plated in monolayer culture in spheroid media in 100 mm dishes. […] Confluent monolayers were then scratched with a 10-μL pipette tip, rinsed, and width of the wound was monitored for 0-14 h.
In (A), A431 cells were grown as monolayers or in ultralow attachment plates (spheroids) in spheroid medium. […] Spheroid number was counted on days 1, 2 and 3. […] Spheroid number and trypan-blue viable cell number were determined at the indicated times following NC9 addition. […] A wound was created and ability of the cells to close the wound was monitored with time. […]
Invasion assay. […] The membrane was fixed in 4% paraformaldehyde, stained with 1 μg/m DAPI, and the underside of the membrane was photographed with an inverted fluorescent microscope and the number of cells counted.

hTG1, sequence (P22735 whole entry): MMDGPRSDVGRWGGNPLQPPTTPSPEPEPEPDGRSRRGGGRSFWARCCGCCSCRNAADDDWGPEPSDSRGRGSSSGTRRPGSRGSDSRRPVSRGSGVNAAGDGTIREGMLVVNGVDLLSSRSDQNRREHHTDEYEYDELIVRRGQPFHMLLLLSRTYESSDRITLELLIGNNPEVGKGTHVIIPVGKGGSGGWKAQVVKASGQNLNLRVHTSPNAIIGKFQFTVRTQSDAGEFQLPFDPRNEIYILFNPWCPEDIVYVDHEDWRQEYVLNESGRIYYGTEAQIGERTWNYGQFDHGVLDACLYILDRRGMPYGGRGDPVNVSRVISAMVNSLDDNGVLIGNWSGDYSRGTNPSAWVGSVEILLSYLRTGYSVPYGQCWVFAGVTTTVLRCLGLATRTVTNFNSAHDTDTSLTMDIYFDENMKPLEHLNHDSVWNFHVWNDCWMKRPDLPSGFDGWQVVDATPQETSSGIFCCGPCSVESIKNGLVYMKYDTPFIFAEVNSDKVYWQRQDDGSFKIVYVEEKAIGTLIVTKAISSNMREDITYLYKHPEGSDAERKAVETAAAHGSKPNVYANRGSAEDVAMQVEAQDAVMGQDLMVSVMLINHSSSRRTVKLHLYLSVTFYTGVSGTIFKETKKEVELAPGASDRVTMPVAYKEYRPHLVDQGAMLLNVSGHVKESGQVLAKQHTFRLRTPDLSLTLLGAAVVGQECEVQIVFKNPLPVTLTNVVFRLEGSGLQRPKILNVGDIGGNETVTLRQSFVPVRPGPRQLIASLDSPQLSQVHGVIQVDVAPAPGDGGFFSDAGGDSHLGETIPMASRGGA

C=CC(=O)NCCCC[C@H](NC(=O)OCc1ccccc1)C(=O)NCCOCCOCCNS(=O)(=O)c1cccc2c(N(C)C)cccc12 [NC9]
kobs (10^−3 min^−1), TG1 (hTG1): 78.9 ± 5.9 10^−3 min^−1 | reduction of ability of A431 ECS cells to invade Matrigel (A431 cells; 20 μM 1 hour, 24 hours): 50% | matrigel invasion (A431 cells; 20 μM pretreatment 2 h, 30 h): reduced matrigel invasion
